These results are taken from patent US20030032581A1, “Pharmaceuticals for treating obesity” (priority 1999, published 2003).

One experiment concerns fat-fed C57BL/6J mice. The experiment is described as follows: Fat-fed C57BL/6J mice, obesity and metabolic parameters. Conditions: HF diet + 50 mg/kg/day. The experiment is classed as in vivo. Here is the method: At the end of that time the animals had gained 16g, 22 g and 20.5 g, respectively (FIG. 3). […] Analysis of whole body triglyceride content and protein content were performed as described in Moller et al (Endocrinology 137:2397-2405, 1996). […] Thus, treatment with the PPARγ antagonist caused relative decreases in body adiposity and increases in lean body mass in fat fed mice. The plasma levels of glucose, triglycerides and free fatty acid levels were all increased in the HF group relative to the LF group (see Table below).

The test system of the next experiment is 3T3-L1 cells. The experiment is described as follows: 3T3-L1 preadipocyte differentiation (aP2 expression). It counts as cell-based. Conditions: Mus musculus, 3T3-L1, 120 h; 100 nM rosiglitazone, 5 days; read-out: IC50, block of rosiglitazone stimulated aP2 expression. Here is the method: 3T3-L1 cells were obtained from American Type Culture Collection. Passage numbers 3 to 9 were used in all the studies. Monolayer fibroblasts were maintained in medium A (Dulbecco's modified Eagle's medium with 10% fetal calf serum, 100 units/ml penicillin, and 100 μg/ml streptomycin) at 37° C. in 5% CO2. […] Total RNA was prepared using Ultraspec™ RNA isolation system (Biotecx, Houston, Tex.). RNA concentration was quantitated by absorbance at 260 nm. Equal amount of RNA samples were denatured in formamide/formaldehyde and applied to Hybond™-N membranes (Amersham) using a slot blot apparatus (BioRad). Prehybridization was performed at 42° C. for 1-3 h in 40-50% formamide in a solution containing 25 mM sodium phosphate, pH 7.4, 0.9 M sodium chloride, 50 mM sodium citrate, 0.1% each of gelatin, ficoll, and polyvinylpyrollidone, 0.5% SDS, and 100 μg/ml denatured salmon sperm DNA. Hybridization was carried out at the same temperature for 20h in the same solution with ^32P-labeled aP2 cDNA probe (2×10^6 cpm/ml). After washing the membranes under appropriately stringent conditions, the hybridization signals were analyzed with a Phosphorlmager (Molecular Dynamics).

The subject of the next experiment is ob/ob mice. The experiment is described as follows: ob/ob mice, plasma insulin. As to conditions: once daily dosing. It counts as in vivo. An excerpt:
The PPAR-gamma antagonists/partial agonists are therefore effective in treating the obesity and other symptoms that generally occur in non-insulin dependent diabetes, such as elevated levels of glucose, triglycerides, and insulin in the plasma.

A word on the IC50: it is the concentration that gives 50% inhibition.

SMILES strings stand for the structures. Marks after values point to notes of the source that are not given here.

As to `O=C(O)c1c(Sc2ccccc2)c2cc(Cl)ccc2n1Cc1ccc(Cl)cc1` [Compound I, 1-(p-chlorobenzyl)-5-chloro-3-thiophenylindole-2-carboxylic acid], in the experiment on fat-fed C57BL/6J mice (72 days), the body weight gained was 20.5 g. In addition, in the experiment with fat-fed C57BL/6J mice (mean +/- SE of 10 mice), the “Plasma free fatty acids” value was 0.536 +/− 0.02* mM, the Plasma glucose is reported as 145.6 +/− 4.1* mg/dl, the Plasma triglycerides was 71.4 +/− 4.1** mg/dl and the Serum insulin was 1.35 ± 0.21 ng/mL. Besides, the IC50 in the experiment on 3T3-L1 cells was around 300 nM. Also, the “reduction in elevated levels of mean plasma insulin” value in the experiment with ob/ob mice is on record as 30-50%.
